What was measured:
Assay type in all cases: physicochemical
[1] = Evaluation of MY composition solubility in water (Experiment Example 1)
Procedure: The MY and γ-CD were used in the proportions (mole ratios) presented in Table 1, and […] different powdery MY compositions (Samples 1 to 22) were prepared according to the method of Example 1.
The powdery MY composition (Samples 1 to 22) or a control MY (MY itself) was added to water (20 ml) in a 100-ml Erlenmeyer flask while stirring. The samples were added until they could not be dissolved further, and formed deposits. Each solution was shaken (Bio-Shaker BR-3000LF, 160 rpm, amplitude=40 mm, Taitec Co., Ltd.) at 25° C. for 40 hours, and centrifuged at 9,000 rpm for 10 min to collect the supernatant. The supernatant was appropriately diluted with a 0.1% phosphoric acid aqueous solution, and absorbance (346 nm) was measured.
1) MY (50 mg) was accurately weighed, and dissolved in methanol to make the volume precisely 100 ml. 2) The solution was appropriately diluted with a 0.1% phosphoric acid aqueous solution to prepare MY solutions of 0.0001, 0.0005, 0.001, 0.005, and 0.01 mg/ml concentrations. 3) The absorbance of the standard solution at a wavelength of maximum absorption was measured with a spectrophotometer. 4) A standard curve was created based on the content of MY in the MY solution, and the measured absorbance value.

[2] = Evaluation of water solubility with α- and β-cyclodextrins (Reference Experiment Example)
Procedure: Evaluation of Water Solubility with α- and β-Cyclodextrins Instead of γ-CD, α-cyclodextrin (α-CD) and β-cyclodextrin (β-CD) (both from Nihon Shokuhin Kako Co., Ltd.) were used to prepare MY inclusions, and the solubility of the compositions in water was evaluated.
Specifically, an MY composition containing 3 moles of α-CD (Reference Sample 1), or an MY composition containing 3 moles of β-CD (Reference Sample 2) per mole of MY were prepared according to the method of Example 1, and the solubility of each composition in water was determined as an MY solubility (mg/ml) according to the method of Experiment Example 1. The solubility (mg/ml) of the MY itself was also determined as a control, and the solubility (fold) was calculated from the relative ratio of the two.

[3] = Evaluation of the solubility of other flavonoids in water (Experiment Example 2)
Procedure: The solubility (mg/ml) of each composition in water in terms of the flavonoid was then determined according to the method of Experiment Example 1. The solubility (mg/ml) of the flavonoid itself in water was also determined as a control, and the solubility (fold) was calculated from the relative ratio of the two.

[4] = Evaluation of preservation stability, presence or absence of deposits in acid and sugar solutions (Experiment Example 3); set-up: key: +: the presence of deposits; −: the absence of deposits; x: no dissolution in the acid and sugar solution; conditions: 210 days
Procedure: MY and γ-CD were used in the 1:1 proportion (mole ratio) to prepare a powder composition (sample 1) according to the method of Example 1. […] Each solution was hot-packed in a 100-ml glass vial (93° C.). The drinks so prepared were allowed to cool, and placed under 50° C., room temperature (25±2° C.), and low-temperature (5° C.) conditions for 210 days. The presence or absence of deposits was then checked by visual inspection. […] The drinks so prepared were allowed to cool, and placed under 50° C., room temperature (25±2° C.), and low-temperature (5° C.) conditions for 210 days. The presence or absence of deposits was then observed. In the table, the symbol “+” means the presence of deposits, and “−” the absence of deposits. The symbol “x” means no dissolution in the acid and sugar solution.

C[C@H]1O[C@@H](Oc2c(-c3cc(O)c(O)c(O)c3)oc3cc(O)cc(O)c3c2=O)[C@@H](O)[C@@H](O)[C@@H]1O [MY, myricitrin]
Solubility (fold) ([1]; relative to solubility of MY itself (non-inclusion) = 1, 25° C., 40 hours): 1 fold | Solubility (in terms of myricitrin, mg/ml) ([1]; shaken at 25° C. for 40 hours, MY:γ-CD = 1:X per sample): 0.12 mg/mL | Solubility (fold) ([2]; relative to MY alone = 1): 1 fold | Solubility (in terms of myricitrin, mg/ml) ([2]; water, method of Experiment Example 1, MY:CD = 1:3 mole ratio): 0.10 mg/mL | Solubility (fold) (in terms of flavonoids) ([3]; Flavonoid:γ-CD = 1:0 (mole ratio), flavonoid itself, reference): 1 fold | Solubility (fold) (in terms of flavonoids) ([3]; Flavonoid:γ-CD = 1:1 (mole ratio)): 157.8 fold | Solubility (fold) (in terms of flavonoids) ([3]; Flavonoid:γ-CD = 1:3 (mole ratio)): 256.2 fold | Solubility (fold) (in terms of flavonoids) ([3]; Flavonoid:γ-CD = 1:5 (mole ratio)): 187.4 fold | Solubility (fold) (in terms of flavonoids) ([3]; Flavonoid:γ-CD = 1:10 (mole ratio)): 49.3 fold | Solubility (fold) (in terms of flavonoids) ([3]; Flavonoid:γ-CD = 1:15 (mole ratio)): 59.9 fold | Solubility (fold) (in terms of flavonoids) ([3]; Flavonoid:γ-CD = 1:20 (mole ratio)): 46.3 fold | presence or absence of deposits ([4]; pH 3, 50° C., flavonoid concentration 0.05%): + | presence or absence of deposits ([4]; pH 3, 50° C., flavonoid concentration 0.10%): + | presence or absence of deposits ([4]; pH 3, refrigerated (5° C.), flavonoid concentration 0.05%): + | presence or absence of deposits ([4]; pH 3, refrigerated (5° C.), flavonoid concentration 0.10%): + | presence or absence of deposits ([4]; pH 3, room temperature, flavonoid concentration 0.05%): + | presence or absence of deposits ([4]; pH 3, room temperature, flavonoid concentration 0.10%): + | presence or absence of deposits ([4]; pH 6, 50° C., flavonoid concentration 0.05%): − | presence or absence of deposits ([4]; pH 6, 50° C., flavonoid concentration 0.10%): − | presence or absence of deposits ([4]; pH 6, refrigerated (5° C.), flavonoid concentration 0.05%): + | presence or absence of deposits ([4]; pH 6, refrigerated (5° C.), flavonoid concentration 0.10%): + | presence or absence of deposits ([4]; pH 6, room temperature, flavonoid concentration 0.05%): + | presence or absence of deposits ([4]; pH 6, room temperature, flavonoid concentration 0.10%): + | presence or absence of deposits ([4]; pH 9, 50° C., flavonoid concentration 0.05%): − | presence or absence of deposits ([4]; pH 9, 50° C., flavonoid concentration 0.10%): − | presence or absence of deposits ([4]; pH 9, refrigerated (5° C.), flavonoid concentration 0.05%): − | presence or absence of deposits ([4]; pH 9, refrigerated (5° C.), flavonoid concentration 0.10%): − | presence or absence of deposits ([4]; pH 9, room temperature, flavonoid concentration 0.05%): − | presence or absence of deposits ([4]; pH 9, room temperature, flavonoid concentration 0.10%): −

Source: patent US20120015090A1, “READILY WATER-SOLUBLE MYRICITRIN COMPOSITION” (SAN-EI GEN F.F.I., INC., priority 2009, published 2012)
